In ChEMBL document CHEMBL4011606, “Synthesis and antiplasmodial activity of novel indoleamide derivatives bearing sulfonamide and triazole pharmacophores” (Eur J Med Chem, 2017):

Experiments:
Plasmodium falciparum [1] = assay: Antiplasmodial activity against chloroquine-sensitive Plasmodium falciparum 3D7 infected in human erythrocytes measured after 72 hrs by SYBR green 1 dye based fluorescence assay; type: functional, cell-based; conditions: 3D7, 72 h
Plasmodium falciparum [2] = assay: Antiplasmodial activity against chloroquine-resistant Plasmodium falciparum K1 infected in human erythrocytes measured after 72 hrs by SYBR green 1 dye based fluorescence assay; type: functional, cell-based; conditions: K1, 72 h
[3] = Cytotoxicity against African green monkey Vero cells measured after 3 days by resazurin dye based fluorescence assay; type: cell-based; conditions: chlorocebus sabaeus
[4] = Selectivity index, ratio of CC50 for African green monkey Vero cells to IC50 for chloroquine-sensitive Plasmodium falciparum 3D7; type: toxicity; conditions: read-out: Ratio CC50/IC50
[5] = Selectivity index, ratio of CC50 for African green monkey Vero cells to IC50 for chloroquine-resistant Plasmodium falciparum K1; type: toxicity; conditions: read-out: Ratio CC50/IC50
[6] = Resistance index, ratio of IC50 for chloroquine-resistant Plasmodium falciparum K1 to IC50 for chloroquine-sensitive Plasmodium falciparum 3D7; type: functional

SMILES | IC50 (Plasmodium falciparum [1]) [nM] | IC50 (Plasmodium falciparum [2]) [nM] | CC50 at 72 h [3] [µM] | selectivity ratio [4] | selectivity ratio [5] | Ratio IC50 [6]
CC(C)(C)c1ccc(S(=O)(=O)n2cc(CCCC(=O)NC34CC5CC(CC(C5)C3)C4)c3ccccc32)cc1 | 1870 | 1690 | > 250 | > 133 | > 147 | 0.9
Cc1cc(S(=O)(=O)n2cc(CCCC(=O)NC34CC5CC(CC(C5)C3)C4)c3ccccc32)c(C)cc1Cl | 1930 | 2120 | > 250 | > 129 | > 112 | 1.15
